Data taken from PubChem BioAssay (NCI).
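Here, GI50 denotes the concentration required for 50% inhibition of growth. At the TGI there is no net growth.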

Legend:
Assay in all cases: growth of human tumour cells (NCI), 384-well format
SK-MEL-2 melanoma = tested on: SK-MEL-2 melanoma
HOP-62 NSCLC = tested on: HOP-62 NSCLC
COLO 205 colon = tested on: COLO 205 colon
MDA-MB-468 breast = tested on: MDA-MB-468 breast
A498 renal = tested on: A498 renal
SR leukemia = tested on: SR leukemia
OVCAR-4 ovarian = tested on: OVCAR-4 ovarian
SW-620 colon = tested on: SW-620 colon
SK-OV-3 ovarian = tested on: SK-OV-3 ovarian
SNB-19 CNS = tested on: SNB-19 CNS
OVCAR-8 ovarian = tested on: OVCAR-8 ovarian
M14 melanoma = tested on: M14 melanoma
NCI-H226 lung = tested on: NCI-H226 lung
UO-31 renal = tested on: UO-31 renal
SK-MEL-5 melanoma = tested on: SK-MEL-5 melanoma
K-562 leukemia = tested on: K-562 leukemia
SF-539 CNS = tested on: SF-539 CNS
HT29 colon = tested on: HT29 colon
CCRF-CEM leukemia = tested on: CCRF-CEM leukemia
OVCAR-3 ovarian = tested on: OVCAR-3 ovarian
KM12 colon = tested on: KM12 colon
786-0 renal = tested on: 786-0 renal
NCI-H522 lung = tested on: NCI-H522 lung
MCF7 breast = tested on: MCF7 breast
UACC-62 melanoma = tested on: UACC-62 melanoma
NCI-H460 NSCLC = tested on: NCI-H460 NSCLC
HOP-92 NSCLC = tested on: HOP-92 NSCLC
HCT-116 colon = tested on: HCT-116 colon
A549 NSCLC = tested on: A549 NSCLC
HL-60(TB) leukemia = tested on: HL-60(TB) leukemia
SK-MEL-28 melanoma = tested on: SK-MEL-28 melanoma
BT-549 breast = tested on: BT-549 breast
MDA-MB-231 breast = tested on: MDA-MB-231 breast
OVCAR-5 ovarian = tested on: OVCAR-5 ovarian
RXF 393 renal = tested on: RXF 393 renal
DU-145 prostate = tested on: DU-145 prostate
HCC-2998 colon = tested on: HCC-2998 colon
U251 glioblastoma = tested on: U251 glioblastoma
NCI-H23 lung = tested on: NCI-H23 lung
MALME-3M melanoma = tested on: MALME-3M melanoma
MOLT-4 leukemia = tested on: MOLT-4 leukemia
HCT-15 colon = tested on: HCT-15 colon
LOX IMVI melanoma = tested on: LOX IMVI melanoma
UACC-257 melanoma = tested on: UACC-257 melanoma
TK-10 renal = tested on: TK-10 renal
NCI-H322M lung = tested on: NCI-H322M lung
SF-295 CNS = tested on: SF-295 CNS
IGROV1 ovarian = tested on: IGROV1 ovarian
CAKI-1 renal = tested on: CAKI-1 renal
PC-3 prostate = tested on: PC-3 prostate
MDA-MB-435 melanoma = tested on: MDA-MB-435 melanoma
SN12C renal = tested on: SN12C renal
SF-268 CNS = tested on: SF-268 CNS
NCI/ADR-RES ovarian = tested on: NCI/ADR-RES ovarian
ACHN renal = tested on: ACHN renal
RPMI-8226 leukemia = tested on: RPMI-8226 leukemia

Cc1c(-c2c(F)cc(C(N)=O)c3[nH]c4c(c23)CC[C@H](C(C)(C)O)C4)cccc1-n1c(=O)c2cccc(F)c2n(C)c1=O
GI50 (SK-MEL-2 melanoma): 2.18 µM | TGI (SK-MEL-2 melanoma): 7.9 µM | GI50 (HOP-62 NSCLC): 8.36 µM | TGI (HOP-62 NSCLC): 26.5 µM | GI50 (COLO 205 colon): 1.61 µM | TGI (COLO 205 colon): 4.46 µM | GI50 (MDA-MB-468 breast): 2.86 µM | TGI (MDA-MB-468 breast): 5.86 µM | GI50 (A498 renal): 3.25 µM | TGI (A498 renal): 9.41 µM | GI50 (SR leukemia): 1.66 µM | TGI (SR leukemia): 3.04 µM | GI50 (OVCAR-4 ovarian): 2.8 µM | TGI (OVCAR-4 ovarian): 7.38 µM | GI50 (SW-620 colon): 2.94 µM | TGI (SW-620 colon): 13.5 µM | GI50 (SK-OV-3 ovarian): 2.26 µM | TGI (SK-OV-3 ovarian): 8.77 µM | GI50 (SNB-19 CNS): 9.94 µM | TGI (SNB-19 CNS): 24.5 µM | GI50 (OVCAR-8 ovarian): 4.62 µM | TGI (OVCAR-8 ovarian): 22.9 µM | GI50 (M14 melanoma): 2.2 µM | TGI (M14 melanoma): 10.1 µM | GI50 (NCI-H226 lung): 2.56 µM | TGI (NCI-H226 lung): 10.4 µM | GI50 (UO-31 renal): 2 µM | TGI (UO-31 renal): 5.39 µM | GI50 (SK-MEL-5 melanoma): 4.31 µM | TGI (SK-MEL-5 melanoma): 14.1 µM | GI50 (K-562 leukemia): 4.66 µM | TGI (K-562 leukemia): > 100 µM | GI50 (SF-539 CNS): 8 µM | TGI (SF-539 CNS): 20.9 µM | GI50 (HT29 colon): 1.47 µM | TGI (HT29 colon): 11.8 µM | GI50 (CCRF-CEM leukemia): 3.33 µM | TGI (CCRF-CEM leukemia): 9.78 µM | GI50 (OVCAR-3 ovarian): 2.54 µM | TGI (OVCAR-3 ovarian): 6.39 µM | GI50 (KM12 colon): 0.284 µM | TGI (KM12 colon): 1.54 µM | GI50 ([…]-0 renal): 3.27 µM | TGI (786-0 renal): 14.5 µM | GI50 (NCI-H522 lung): 1.89 µM | TGI (NCI-H522 lung): 6.56 µM | GI50 (MCF7 breast): 1.29 µM | TGI (MCF7 breast): 3.56 µM | GI50 (UACC-62 melanoma): 3.6 µM | TGI (UACC-62 melanoma): 15.7 µM | GI50 (NCI-H460 NSCLC): 2.9 µM | TGI (NCI-H460 NSCLC): 13.1 µM | GI50 (HOP-92 NSCLC): 1.45 µM | TGI (HOP-92 NSCLC): 4.8 µM | GI50 (HCT-116 colon): 3.14 µM | TGI (HCT-116 colon): 12.1 µM | GI50 (A549 NSCLC): 2.43 µM | TGI (A549 NSCLC): 9.34 µM | GI50 (HL-60(TB) leukemia): 1.12 µM | TGI (HL-60(TB) leukemia): 2.34 µM | GI50 (SK-MEL-28 melanoma): 2.87 µM | TGI (SK-MEL-28 melanoma): 13.8 µM | GI50 (BT-549 breast): 5.1 µM | TGI (BT-549 breast): 15.7 µM | GI50 (MDA-MB-231 breast): 3.59 µM | TGI (MDA-MB-231 breast): 14.5 µM | GI50 (OVCAR-5 ovarian): 2.56 µM | TGI (OVCAR-5 ovarian): 11.3 µM | GI50 (RXF 393 renal): 1.96 µM | TGI (RXF 393 renal): 4.07 µM | GI50 (DU-145 prostate): 4.85 µM | TGI (DU-145 prostate): 23 µM | GI50 (HCC-2998 colon): 2.33 µM | TGI (HCC-2998 colon): 6.99 µM | GI50 (U251 glioblastoma): 5.78 µM | TGI (U251 glioblastoma): 19.8 µM | GI50 (NCI-H23 lung): 2.67 µM | TGI (NCI-H23 lung): 10.9 µM | GI50 (MALME-3M melanoma): 1.79 µM | TGI (MALME-3M melanoma): 6.95 µM | GI50 (MOLT-4 leukemia): 1.53 µM | TGI (MOLT-4 leukemia): 2.93 µM | GI50 (HCT-15 colon): 3.7 µM | TGI (HCT-15 colon): 13.6 µM | GI50 (LOX IMVI melanoma): 5.98 µM | TGI (LOX IMVI melanoma): 16.2 µM | GI50 (UACC-257 melanoma): 2.29 µM | TGI (UACC-257 melanoma): 10.7 µM | GI50 (TK-10 renal): 2.16 µM | TGI (TK-10 renal): 4.76 µM | GI50 (NCI-H322M lung): 4.08 µM | TGI (NCI-H322M lung): 23.6 µM | GI50 (SF-295 CNS): 3.42 µM | TGI (SF-295 CNS): 12 µM | GI50 (IGROV1 ovarian): 3.17 µM | TGI (IGROV1 ovarian): 9.53 µM | GI50 (CAKI-1 renal): 2.21 µM | TGI (CAKI-1 renal): 5.72 µM | GI50 (PC-3 prostate): 3.85 µM | TGI (PC-3 prostate): 17 µM | GI50 (MDA-MB-435 melanoma): 4.13 µM | TGI (MDA-MB-435 melanoma): 15.1 µM | GI50 (SN12C renal): 3.26 µM | TGI (SN12C renal): 13.1 µM | GI50 (SF-268 CNS): 5.58 µM | TGI (SF-268 CNS): 21.4 µM | GI50 (NCI/ADR-RES ovarian): 3.55 µM | TGI (NCI/ADR-RES ovarian): 13 µM | GI50 (ACHN renal): 1.97 µM | TGI (ACHN renal): 5.73 µM | GI50 (RPMI-8226 leukemia): 1.32 µM | TGI (RPMI-8226 leukemia): 2.7 µM
